# Assay results published in patent publication US20100173968A1, “SUB-TYPE SELECTIVE AZABICYCLOALKANE DERIVATIVES” (TARGACEPT, INC., priority 2007, published 2010).
# Where two headings read alike, the source gives them in different places.
# What was measured:
# [1] = NOR (novel object recognition) task; format: in vivo; conditions: orally, in rats
# Procedure: Certain exemplified compounds were assessed in the NOR (novel object recognition) task. This illustrates efficacy and potency of the compounds of the present invention in treating cognitive deficits, attention disorders, and dementias, and the potential of these compounds for human therapy.
# α4β2 nAChR Subtype = α4β2 nAChR Subtype (Rattus norvegicus, UniProt P09483+P12390); assay: Radioligand binding at α4β2 nAChR subtype, inhibition of [3H]nicotine binding, rat cerebral cortex membranes; conditions: [3H]nicotine 5 nM
# Sequence of α4β2 nAChR Subtype (P09483 31-630): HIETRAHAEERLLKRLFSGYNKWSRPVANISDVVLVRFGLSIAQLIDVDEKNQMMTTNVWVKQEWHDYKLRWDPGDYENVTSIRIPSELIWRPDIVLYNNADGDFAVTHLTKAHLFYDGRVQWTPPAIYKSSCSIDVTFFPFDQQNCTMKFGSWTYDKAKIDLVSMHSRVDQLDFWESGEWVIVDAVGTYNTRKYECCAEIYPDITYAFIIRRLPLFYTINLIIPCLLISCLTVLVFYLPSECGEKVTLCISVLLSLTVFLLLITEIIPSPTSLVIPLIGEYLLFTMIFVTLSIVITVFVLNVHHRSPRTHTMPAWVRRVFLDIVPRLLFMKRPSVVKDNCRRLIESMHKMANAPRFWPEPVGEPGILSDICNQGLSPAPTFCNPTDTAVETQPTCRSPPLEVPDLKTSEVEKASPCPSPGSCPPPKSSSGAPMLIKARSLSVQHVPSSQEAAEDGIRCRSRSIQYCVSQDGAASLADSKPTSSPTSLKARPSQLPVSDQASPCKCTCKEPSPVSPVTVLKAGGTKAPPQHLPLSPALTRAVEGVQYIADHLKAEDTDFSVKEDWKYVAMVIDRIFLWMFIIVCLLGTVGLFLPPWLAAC
# Sequence of α4β2 nAChR Subtype (P12390 25-500): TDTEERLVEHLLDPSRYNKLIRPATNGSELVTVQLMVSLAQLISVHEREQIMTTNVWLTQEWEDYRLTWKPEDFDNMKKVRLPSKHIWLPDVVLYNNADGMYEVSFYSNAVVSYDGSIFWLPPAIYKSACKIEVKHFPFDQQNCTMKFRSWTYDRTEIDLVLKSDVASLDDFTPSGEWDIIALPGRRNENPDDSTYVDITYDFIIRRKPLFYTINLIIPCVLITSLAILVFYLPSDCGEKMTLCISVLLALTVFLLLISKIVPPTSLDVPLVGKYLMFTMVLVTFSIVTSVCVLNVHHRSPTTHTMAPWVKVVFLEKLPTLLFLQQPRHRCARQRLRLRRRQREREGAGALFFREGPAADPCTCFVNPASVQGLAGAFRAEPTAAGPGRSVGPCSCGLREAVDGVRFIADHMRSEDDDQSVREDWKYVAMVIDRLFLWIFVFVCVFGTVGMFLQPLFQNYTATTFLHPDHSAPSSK
# Procedure: The [^3H]nicotine (Specific Activity=81.5 Ci/mmol) was obtained from NEN Research Products. The binding of [^3H]nicotine was measured using a 3 h incubation at 4° C. […] Each filter was washed with ice-cold buffer (3×1 mL).
# Each concentration was replicated in triplicate.
# α7 nAChR Subtype = α7 nAChR Subtype (Rattus norvegicus, UniProt Q05941); assay: Radioligand binding at α7 nAChR subtype, inhibition of [3H]MLA binding, rat hippocampus membranes (HTS at 5 μM, then Ki); conditions: for inhibition at 5 µM: read-out: α7 HTS outcome (α7 Ki)
# Sequence of α7 nAChR Subtype (Q05941 23-502): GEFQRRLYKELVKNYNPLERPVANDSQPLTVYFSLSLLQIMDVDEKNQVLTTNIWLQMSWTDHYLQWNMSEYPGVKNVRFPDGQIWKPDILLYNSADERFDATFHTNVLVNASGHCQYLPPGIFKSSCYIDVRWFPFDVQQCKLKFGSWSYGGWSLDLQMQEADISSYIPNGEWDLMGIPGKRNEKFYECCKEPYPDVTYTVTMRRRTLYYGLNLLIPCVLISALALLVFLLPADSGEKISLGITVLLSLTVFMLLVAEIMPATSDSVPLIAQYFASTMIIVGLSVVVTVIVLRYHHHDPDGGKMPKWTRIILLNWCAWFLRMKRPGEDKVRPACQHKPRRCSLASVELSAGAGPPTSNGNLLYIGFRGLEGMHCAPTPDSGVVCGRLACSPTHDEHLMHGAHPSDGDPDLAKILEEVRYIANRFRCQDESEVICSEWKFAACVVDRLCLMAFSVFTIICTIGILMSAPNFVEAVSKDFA
# Human α4β2 = Human α4β2 (Homo sapiens, UniProt P17787+P43681); assay: Binding at human α4β2 (Ki); method not described
# Sequence of Human α4β2 (P43681 29-627 limits assumed): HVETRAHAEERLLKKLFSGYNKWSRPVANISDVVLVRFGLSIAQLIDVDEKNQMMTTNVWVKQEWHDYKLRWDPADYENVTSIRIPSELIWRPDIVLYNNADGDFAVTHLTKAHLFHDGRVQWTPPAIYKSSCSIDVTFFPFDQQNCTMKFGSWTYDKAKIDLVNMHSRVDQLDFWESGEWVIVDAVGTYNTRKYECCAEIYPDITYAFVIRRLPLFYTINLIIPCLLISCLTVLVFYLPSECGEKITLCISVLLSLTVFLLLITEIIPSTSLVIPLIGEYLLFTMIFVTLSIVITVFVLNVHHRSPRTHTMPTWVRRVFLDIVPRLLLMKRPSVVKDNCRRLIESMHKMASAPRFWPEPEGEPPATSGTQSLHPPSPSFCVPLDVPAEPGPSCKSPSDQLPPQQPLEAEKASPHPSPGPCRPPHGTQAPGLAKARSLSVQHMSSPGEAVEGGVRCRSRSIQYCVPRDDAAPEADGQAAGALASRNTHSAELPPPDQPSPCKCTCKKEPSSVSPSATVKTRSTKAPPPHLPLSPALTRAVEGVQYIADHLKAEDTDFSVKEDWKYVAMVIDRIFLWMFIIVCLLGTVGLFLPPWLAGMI
# Sequence of Human α4β2 (P17787 26-502): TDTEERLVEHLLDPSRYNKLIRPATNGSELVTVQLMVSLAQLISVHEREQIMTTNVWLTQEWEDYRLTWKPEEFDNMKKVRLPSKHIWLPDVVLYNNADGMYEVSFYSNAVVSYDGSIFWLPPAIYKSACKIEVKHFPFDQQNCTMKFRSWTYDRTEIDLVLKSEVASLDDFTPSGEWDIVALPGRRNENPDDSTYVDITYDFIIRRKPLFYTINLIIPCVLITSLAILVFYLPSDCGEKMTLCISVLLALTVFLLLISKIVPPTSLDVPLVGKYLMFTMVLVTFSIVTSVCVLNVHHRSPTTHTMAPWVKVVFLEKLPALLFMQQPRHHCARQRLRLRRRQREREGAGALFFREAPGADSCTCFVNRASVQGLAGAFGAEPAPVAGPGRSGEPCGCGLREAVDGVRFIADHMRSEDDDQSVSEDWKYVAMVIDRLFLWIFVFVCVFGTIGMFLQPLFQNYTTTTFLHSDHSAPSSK
# [2] = read-out: α7 Ki, [3H]MLA 5 nM, rat hippocampus
Compound,"activity in the NOR task (recognition index) ([1]; dose of 0.1 mg/kg, FIG. 1)",Ki (α4β2 nAChR Subtype; read-out: Rat α4β2 Ki) [nM],Ki (α7 nAChR Subtype) [nM],Ki (Human α4β2) [nM],"activity in the NOR task (recognition index) ([1]; dose of 1 mg/kg, FIG. 2)",Ki (α7 nAChR Subtype; [2]) [nM],inhibition at 5 µM (α7 nAChR Subtype) [%],Ki (α4β2 nAChR Subtype; Rat α4β2 Ki) [nM]
"COC(=O)C1C[C@H]2CNC[C@H]2C1 (mixture of isomers) [Compound A, methyl 3-azabicyclo[3.3.0]octane-7-carboxylate]",active,20,> 10000,8,,,,
"CNC(=O)C1CC2CNCC(C2)C1 (centres unmarked) [Compound B, N-methyl-3-azabicyclo[3.3.1]nonane-7-carboxamide]",,6,> 10000,2,active,,,
O=C(C1C[C@H]2CNC[C@H]2C1)N1CCCCO1 (mixture of isomers) [(3-azabicyclo[3.3.0]oct-7-yl)(1-oxazinan-2-yl)methanone],,17.4,,5.5,,≥ 10000,,
O=C(NC1CCCC1)C1CC2CNCC(C2)C1 (centres unmarked) [N-cyclopentyl-3-azabicyclo[3.3.1]nonane-7-carboxamide],,102,,26.8,,,< 50,
CCNC(=O)C1CC2CNCC(C2)C1 (centres unmarked) [N-ethyl-3-azabicyclo[3.3.1]nonane-7-carboxamide],,13.5,,6.4,,,< 50,
CC(C)OC(=O)C1C[C@H]2CNC[C@H]2C1 (mixture of isomers) [isopropyl 3-azabicyclo[3.3.0]octane-7-carboxylate],,103,> 10000,7.8,,,,
N#Cc1ccoc1C(=O)[C@H]1C[C@H]2CNC[C@H]2C1 [cis-3-cyanofuran-2-yl(3-azabicyclo[3.3.0]oct-7-yl)methanone],,14,,25.7,,,< 50,
"CC1COCC(C)N1C(=O)C1C[C@H]2CNC[C@H]2C1 (some centres unmarked) [(3-azabicyclo[3.3.0]oct-7-yl)(2,6-dimethylmorpholin-1-yl)methanone]",,57.5,,71.1,,,< 50,
O=C(NC1CCC1)C1CC2CNCC(C2)C1 (centres unmarked) [N-(cyclobutyl)-3-azabicyclo[3.3.1]nonane-7-carboxamide],,135,,308,,,< 50,
O=C(OC1CCOCC1)C1C[C@H]2CNC[C@H]2C1 (mixture of isomers) [tetrahydropyran-4-yl 3-azabicyclo[3.3.0]octane-7-carboxylate],,68.5,,146,,,< 50,
"O=C(C1C[C@H]2CNC[C@H]2C1)N1CC=CCC1 (mixture of isomers) [(3-azabicyclo[3.3.0]oct-7-yl)(2,3,6-trihydropyridin-1-yl)methanone]",,46.3,,28.4,,,< 50,
CC(C)CC(=O)C1C[C@H]2CNC[C@H]2C1 (mixture of isomers) [1-(3-azabicyclo[3.3.0]oct-7-yl)-3-methyl-1-butanone],,27.3,,4.6,,,< 50,
Cc1ccc(C(=O)C2C[C@H]3CNC[C@H]3C2)o1 (mixture of isomers) [5-methylfuran-2-yl(3-azabicyclo[3.3.0]oct-7-yl)methanone],,74.3,,37,,,< 50,
O=C(Nc1ccccc1F)C1CC2CNCC(C2)C1 (centres unmarked) [N-(2-fluorophenyl)-3-azabicyclo[3.3.1]nonane-7-carboxamide],,63,,24.1,,,< 50,
CCCCC(=O)[C@@H]1C[C@H]2CNC[C@H]2C1 [trans-1-(3-azabicyclo[3.3.0]oct-7-yl)-1-pentanone],,108,,186,,,< 50,
"CC(C)(C)C(=O)C1C[C@H]2CNC[C@H]2C1 (mixture of isomers) [1-(3-azabicyclo[3.3.0]oct-7-yl)-2,2-dimethyl-1-propanone]",,21.4,,4.2,,,< 50,
O=C(NC1CC1)C1CC2CNCC(C2)C1 (centres unmarked) [N-cyclopropyl-3-azabicyclo[3.3.1]nonane-7-carboxamide],,707,,15.6,,,< 50,

Compound,"activity in the NOR task (recognition index) ([1]; dose of 0.1 mg/kg, FIG. 1)",Ki (α4β2 nAChR Subtype; read-out: Rat α4β2 Ki) [nM],Ki (α7 nAChR Subtype) [nM],Ki (Human α4β2) [nM],"activity in the NOR task (recognition index) ([1]; dose of 1 mg/kg, FIG. 2)",Ki (α7 nAChR Subtype; [2]) [nM],inhibition at 5 µM (α7 nAChR Subtype) [%],Ki (α4β2 nAChR Subtype; Rat α4β2 Ki) [nM]
C#CCN(C)C(=O)C1C[C@H]2CNC[C@H]2C1 (some centres unmarked) [N-methyl-N-prapargyl-3-azabicyclo[3.3.0]octane-7-carboxamide],,139,≥ 10000,52.5,,,,
O=C(C1CCCCC1)C1C[C@H]2CNC[C@H]2C1 (mixture of isomers) [cyclohexyl(3-azabicyclo[3.3.0]oct-7-yl)methanone],,192,,44.2,,,< 50,
O=C(Nc1ccc(F)cc1)C1CC2CNCC(C2)C1 (centres unmarked) [N-(4-fluorophenyl)-3-azabicyclo[3.3.1]nonane-7-carboxamide],,92.2,,32.1,,,< 50,
CCOC(=O)C1C[C@H]2CNC[C@H]2C1 (mixture of isomers) [ethyl 3-azabicyclo[3.3.0]octane-7-carboxylate],,45.8,,17.5,,,< 50,
O=C(OC1CC=CC1)C1C[C@H]2CNC[C@H]2C1 (mixture of isomers) [cyclopent-3-en-1-yl 3-azabicyclo[3.3.0]octane-7-carboxylate],,59.3,,22.5,,> 10000,,
CC(CF)OC(=O)C1C[C@H]2CNC[C@H]2C1 (mixture of isomers) [1-fluoroprop-2-yl 3-azabicyclo[3.3.0]octane-7-carboxylate],,271,,112,,,< 50,
O=C(c1ccco1)[C@@H]1C[C@H]2CNC[C@H]2C1 [trans-2-furanyl(3-azabicyclo[3.3.0]oct-7-yl)methanone],,,,226,,,< 50,463
"CN(C)C(=O)C1=C[C@@H]2CNC[C@@H]2C1 [N,N-dimethyl-3-azabicyclo[3.3.0]oct-6-ene-7-carboxamide]",,,> 10000,164,,,,60
C/C=C/C(=O)C1C[C@H]2CNC[C@H]2C1 (stereo partly drawn) [trans-1-(3-azabicyclo[3.3.0]oct-7-yl)-2-buten-1-one],,,> 10000,29.7,,,,15.4
O=C(OCc1ccoc1)C1C[C@H]2CNC[C@H]2C1 (mixture of isomers) [(furan-3-yl)methyl 3-azabicyclo[3.3.0]octane-7-carboxylate],,19.6,,16.3,,,< 50,
O=C(C1CCCC1)C1C[C@H]2CNC[C@H]2C1 (mixture of isomers) [cyclopentyl(3-azabicyclo[3.3.0]oct-7-yl)methanone],,15.9,,7.5,,,< 50,
CCC(C)C(=O)C1C[C@H]2CNC[C@H]2C1 (mixture of isomers) [1-(3-azabicyclo[3.3.0]oct-7-yl)-2-methyl-1-butanone],,11.1,,3.3,,,< 50,
CCCNC(=O)C1CC2CNCC(C2)C1 (centres unmarked) [N-propyl-3-azabicyclo[3.3.1]nonane-7-carboxamide],,21.4,,10.4,,,< 50,
O=C(OC1CCCC1)C1C[C@H]2CNC[C@H]2C1 (mixture of isomers) [cyclopentyl 3-azabicyclo[3.3.0]octane-7-carboxylate],,26.6,,13.9,,,< 50,
"O=C(NCC(F)(F)F)C1CC2CNCC(C2)C1 (centres unmarked) [N-(2,2,2-trifiuoroethyl)-3-azabicyclo[3.3.1]nonane-7-carboxamide]",,40.8,,22.8,,> 10000,,
O=C(C1CC2CNCC(C2)C1)N1CCOCC1 (centres unmarked) [4-morpholinyl(3-azabicyclo[3.3.1]non-7-yl)methanone],,62.5,,22.5,,,< 50,
O=C(NCc1ccco1)C1C[C@H]2CNC[C@H]2C1 (mixture of isomers) [N-(2-furanylmethyl)-3-azabicyclo[3.3.0]octane-7-carboxamide],,,74900,302,,,,272
